According to ChEMBL document CHEMBL3232931 (J Med Chem, 2014):

target: T1, Ubiquitin carboxyl-terminal hydrolase isozyme L1 (Homo sapiens, UniProt P09936); test: Inhibition of human UCHL1
T1 sequence (P09936 whole entry): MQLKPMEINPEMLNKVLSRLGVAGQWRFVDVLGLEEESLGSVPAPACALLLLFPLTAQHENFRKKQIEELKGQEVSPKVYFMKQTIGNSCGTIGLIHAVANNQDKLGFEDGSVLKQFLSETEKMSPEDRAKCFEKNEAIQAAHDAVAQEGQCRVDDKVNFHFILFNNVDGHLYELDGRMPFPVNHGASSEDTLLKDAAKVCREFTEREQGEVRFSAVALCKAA

Structure (SMILES)	IC50
C[C@H](c1cccc2ccccc12)N1CCC(C(=O)NCc2ccc3c(c2)OCO3)CC1	Not Active
CC(=O)Nc1cccc(CNC(=O)C2CCN([C@H](C)c3cccc4ccccc34)CC2)c1	Not Active
C[C@H](c1cccc2ccccc12)N1CCC(C(=O)NCc2ccc(F)cc2)CC1	Not Active
C[C@H](c1cccc2ccccc12)N1CCC(C(=O)NCc2cccc(F)c2)CC1	Not Active
